This is an account of results in paper PMC10301001, “Radiochemical and Biological Evaluation of 3p-C-NETA-ePSMA-16, a Promising PSMA-Targeting Agent for Radiotheranostics” (Pharmaceuticals, 2023).

The subject of one data set is LS174T PSMA+ cells. Put plainly: Cell uptake and internalization assay. Format: cell-based, human. The method, then:
LS174T human colon carcinoma cells transfected with human PSMA were provided by Dr. Sandra Heskamp (Radboudumc, Nijmegen, The Netherlands). RPMI-1640 media supplemented with 2 mM glutamine, 10% fetal bovine serum (FBS), and 0.3 mg/mL G418 (Geneticin, Sigma Aldrich, Burlington, MA, USA) was used to culture the cells. PC-3-Pip and PC-3-Flu cells were received from Prof. Martin G. Pomper (John Hopkins University, Baltimore, MD, USA).
LS174T cells were seeded (1.2 × 10^6 cells/well) and cultured to confluency 24 h prior to the experiments. […] Blocking experiments were also performed using a 50-fold excess of either PSMA-617 or 3p-C-NETA-ePSMA-16. The media was removed, and wells were then rinsed twice with PBS at rt. To each well, we added 2 mL of the radioactive compound, which was incubated at 37 °C for 2 h. Internalization assay: the media containing the radioactive compound was removed from each well, followed by two washes with 1 mL cold PBS. Glycine buffer (1 mL, 50 mM glycine, 100 mM NaCl, pH 2.8) was immediately added to the wells prior to incubation at rt for 10 min. The glycine wash and an additional wash were collected into counting tubes (membrane-bound fraction). NaOH (1 mL, 1 M) was added to each well for 15 min at rt. The internalized fraction (lysate) and an additional NaOH wash were collected in the same tubes. Data were normalized to the added dose per 1,000,000 cells (AD/10^6 cells) and represented as counts per minute (CPM).

Data set [1] in a line: LogD7.4 shake-flask method. It counts as physicochemical. Particulars: n-octanol/PBS pH 7.4, n = 3. As for the experimental part:
The distribution coefficient (LogD7.4) was determined by a shake-flask method in triplicate. […] The mixture was vortexed vigorously and then centrifuged at 5000× g for 15 min for phase separation. Samples of the two phases (3 × 10 μL) were taken out and measured using a PerkinElmer Wizard 2 γ-counter. LogD7.4 values were calculated using the following equation: LogD7.4 = log [(counts in octanol phase)/(counts in aqueous phase)] [34].

A short description of data set [2]: Transchelation/challenge study with excess EDTA. It counts as physicochemical. Particulars: 37 °C, 24 h. As for the experimental part:
Samples were analyzed by iTLC at 1, 4, and 24 h after incubation to determine the percentage (%) of intact radioligand [16].

The subject of data set [3] is PSMA+ LS174T tumor xenografts. Put plainly: Ex vivo biodistribution in LS174T tumor-bearing BALB/c nude mice. On the set-up: species or system mouse. The method, then:
(§1) We housed 8–10 weeks old male BALB/c nude mice (BALB/cAnN Rj-Nude; Janvier Labs, Le Genest-Saint-Isle, France) in individually ventilated cages (Blue line IVC, 2 mice per cage). Sterile standard conditions were employed with the presence of cage enrichment and unlimited access to water and animal chow (Sniff GmbH). Acclimatization was realized 1 week before the beginning of the experiments. Mice were subcutaneously inoculated in their right flank with LS174T cells (4.0 × 10^6) diluted in 100 µL of cell suspension. Tumors grew to an average volume of 217.8 ± 9.4 mm^3 in 7 days (average weight of 217 ± 14.4 mg), and mice were grouped non-blinded to afford homogenous tumor size distribution intra-groups. […] All experiments were in accordance with the guidelines of the Revised Dutch Act on Animal Experimentation (WOD).
Mice (n = 4/group) were euthanized via cervical dislocation at 1, 4, and 24 h post-injection (p.i.). A block group (n = 4) containing a 50-fold excess of 3p-C-NETA-ePSMA-16 was also included in the study (euthanized at 4 h p.i.). Tissues were collected in tubes, weighted, and counted in the gamma counter.

Data set [4] deals with PSMA+ LS174T tumor xenografts. Briefly: SPECT/CT imaging in LS174T tumor-bearing mice. Format: in vivo, mouse. Conditions: 1 h p.i. The method, then: as §1
At 1 and 24 h p.i., mice were placed under 2% isoflurane/O2 anesthesia on a heated bed and imaged in a dedicated small-animal PET/SPECT/CT scanner (VECTor5CT scanner, MILabs B.V., Utrecht, The Netherlands) equipped with a high sensitivity pinhole collimator (XXUHS-M, 3.00 mm pinhole diameter). […] The CT and registered attenuation-corrected SPECT images were analyzed using IMALYTICS Preclinical 3.0 (Gremse-IT GmbH, Aachen, Germany).

The target in a further data set is T1, recombinant human PSMA (Homo sapiens, UniProt Q04609).
T1 construct: purchased R&D systems, Abingdon, UK
T1 sequence (Q04609 whole entry): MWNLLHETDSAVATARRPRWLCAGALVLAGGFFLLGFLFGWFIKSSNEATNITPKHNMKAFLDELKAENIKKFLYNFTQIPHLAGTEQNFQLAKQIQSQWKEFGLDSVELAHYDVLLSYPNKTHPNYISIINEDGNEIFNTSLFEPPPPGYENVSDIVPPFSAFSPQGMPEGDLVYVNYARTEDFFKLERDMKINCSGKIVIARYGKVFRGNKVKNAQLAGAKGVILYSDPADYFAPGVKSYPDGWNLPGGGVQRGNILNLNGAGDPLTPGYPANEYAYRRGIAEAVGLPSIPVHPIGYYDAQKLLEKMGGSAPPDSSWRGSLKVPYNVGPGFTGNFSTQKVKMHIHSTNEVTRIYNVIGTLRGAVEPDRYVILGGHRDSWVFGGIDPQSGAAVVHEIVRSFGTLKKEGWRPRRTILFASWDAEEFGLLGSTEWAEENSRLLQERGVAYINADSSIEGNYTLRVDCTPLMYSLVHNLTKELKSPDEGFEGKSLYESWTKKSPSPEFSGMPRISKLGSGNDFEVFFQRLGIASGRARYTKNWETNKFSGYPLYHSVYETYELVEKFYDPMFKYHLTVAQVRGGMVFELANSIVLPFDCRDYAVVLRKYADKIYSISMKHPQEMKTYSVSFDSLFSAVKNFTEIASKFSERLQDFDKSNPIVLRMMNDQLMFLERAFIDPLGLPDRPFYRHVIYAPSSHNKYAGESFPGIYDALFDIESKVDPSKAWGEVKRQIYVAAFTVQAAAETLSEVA
Put plainly: fluorescence-based NAALADase enzymatic assay. Format: biochemical. Particulars: for IC50: rhPSMA, NAAG substrate, three assays in triplicate, read-out: IC50 (affinity to PSMA). The method, then: The assay buffer (50 mM HEPES, 0.1 M NaCl, pH 7.5) was used to dilute the recombinant human PSMA (rhPSMA, R&D systems, Abingdon, UK) to 0.4 µg/mL, as well as the enzymatic substrate Ac-Asp-Glu (NAAG) (40 μM in assay buffer). 3p-C-NETA-ePSMA-16 and an internal reference, PSMA-617, were dissolved in assay buffer at concentrations ranging from 10^−5 to 10^−12 M. 6.25 µL of the compound were incubated with 6.25 µL of the substrate to which 12.5 µL of rhPSMA solution was added, and incubated for 1 h at 37 °C in 384-well black polystyrene microplates. Next, 25 µL of a working solution of the Amplex Red glutamic acid kit (ThermoFisher, Bleiswijk, The Netherlands) was added and incubated at 37 °C for 30 min to measure glutamate released. A HIDEX Sense Optical System (HIDEX, Goedereede, The Netherlands) was used to measure the fluorescence, with excitation set at 535 nm and emission at 590 nm. Assays were performed in triplicate and as three separate replicates. Data were normalized and analyzed using a one-site total binding regression algorithm from GraphPad Prism 9 (GraphPad Software, Boston, MA, USA).

Data set [5] can be described thus: Storage stability of the unlabeled compound. It counts as physicochemical.
The conditions of data set [6]: radiolabeled with 88Y, 177Lu and 205/206Bi; cited from earlier work.
Where [7] appears, read: 4 h p.i., block (50-fold excess unlabeled).

Values joined by “and” are separate entries in the source; they are usually repeats but may differ in a detail not shown here. Equal entries are not always repeated. Some results are limits rather than exact numbers.

What is called logD is the decadic logarithm of the distribution of all forms, ionised or not, between an organic phase and buffer at a given pH. A lower logD goes with a more hydrophilic compound. The compound `CC(C)C[C@H](NC(=O)[C@H](Cc1ccccc1)NC(=O)[C@H](CC(=O)O)NC(=O)CCC(=O)Nc1ccc(CCCC(CN2CCN(CC(=O)[O-])CCN(CC(=O)[O-])CC2)N(CC(=O)[O-])CC(=O)O)cc1)[C@@H](O)CC(=O)NCCCCCC(=O)NCCCC[C@H](NC(=O)N[C@@H](CCC(=O)O)C(=O)O)C(=O)O.[111In+3]` (some centres unmarked) [[^111In]In-3p-C-NETA-ePSMA-16] came in with a total cell uptake in the data set on LS174T PSMA+ cells of 1.41 ± 0.20 % ID/10^6 cells. In the data set on LS174T PSMA+ cells (10^−9 M, 2 h, 37 °C), this compound gave an internalized fraction of 0.50 ± 0.16 % AD/10^6 cells and a membrane-bound fraction of 0.90 ± 0.05 % AD/10^6 cells. Moreover, the “cell uptake in the blocked group” value in the data set on LS174T PSMA+ cells (50-fold excess of unlabeled compound) was “no uptake”. Further, the log distribution coefficient (logD) in data set [1] is reported as −2.95 ± 0.19. Also, the “intact radioligand in transchelation challenge” value in data set [2] is 93.2 ± 0.7% and > 90%. In addition, in data set [3] (1 h p.i.), the Blood uptake is listed as 0.26 ± 0.19 % ID/g, the Bone uptake is given as 0.20 ± 0.05 % ID/g, the Heart uptake came out at 0.15 ± 0.05 % ID/g and the Intestines uptake was 0.59 ± 0.13 % ID/g. In data set [3] (1 h p.i.), the Kidney uptake is on record as 26.70 ± 2.12 % ID/g, the Liver uptake came out at 0.20 ± 0.03 % ID/g, the Lung uptake was 0.45 ± 0.10 % ID/g and the Muscle uptake is listed as 0.13 ± 0.09 % ID/g. For the same compound, in data set [3] (1 h p.i.), the Pancreas uptake came to 0.23 ± 0.05 % ID/g, the Prostate uptake is 1.08 ± 0.41 % ID/g, the Skin uptake worked out at 0.46 ± 0.15 % ID/g and the Spleen uptake is listed as 1.28 ± 0.49 % ID/g. In addition, in data set [3] (1 h p.i.), the Stomach uptake was 0.31 ± 0.21 % ID/g and the Tumor uptake was 1.62 ± 0.55 % ID/g. In data set [3] (4 h p.i.), this compound gave a Blood uptake of 0.01 ± 0.01 % ID/g, a Bone uptake of 0.03 ± 0.00 % ID/g, a Heart uptake of 0.02 ± 0.00 % ID/g and an Intestines uptake of 0.60 ± 0.28 % ID/g. In addition, in data set [3] (4 h p.i.), the Kidney uptake was 11.62 ± 0.62 % ID/g, the Liver uptake came out at 0.07 ± 0.01 % ID/g, the Lung uptake was found to be 0.06 ± 0.01 % ID/g and the Muscle uptake is listed as 0.04 ± 0.00 % ID/g. Besides, in data set [3] (4 h p.i.), the Pancreas uptake is reported as 0.03 ± 0.00 % ID/g, the Prostate uptake came out at 0.12 ± 0.07 % ID/g, the Skin uptake was 0.24 ± 0.15 % ID/g and the Spleen uptake amounted to 0.12 ± 0.01 % ID/g. In data set [3] (4 h p.i.), this compound showed a Stomach uptake of 0.05 ± 0.02 % ID/g and a Tumor uptake of 0.89 ± 0.58 % ID/g. In data set [3] (setting [7]), the Blood uptake amounted to 0.01 ± 0.00 % ID/g, the Bone uptake turned out to be 0.03 ± 0.01 % ID/g, the Heart uptake is given as 0.02 ± 0.00 % ID/g and the Intestines uptake was 0.68 ± 0.02 % ID/g. In data set [3] (setting [7]), the Kidney uptake was found to be 9.53 ± 1.66 % ID/g, the Liver uptake amounted to 0.07 ± 0.01 % ID/g, the Lung uptake amounted to 0.05 ± 0.01 % ID/g and the Muscle uptake was determined as 0.02 ± 0.01 % ID/g. For the same compound, in data set [3] (setting [7]), the Pancreas uptake stood at 0.02 ± 0.01 % ID/g, the Prostate uptake was found to be 0.07 ± 0.02 % ID/g, the Skin uptake worked out at 0.13 ± 0.02 % ID/g and the Spleen uptake was determined as 0.05 ± 0.01 % ID/g. In data set [3] (setting [7]), this compound displayed a Stomach uptake of 0.15 ± 0.10 % ID/g and a Tumor uptake of 0.12 ± 0.04 % ID/g. In data set [3] (24 h p.i.), the Bone uptake was found to be 0.02 ± 0.00 % ID/g, the Heart uptake is recorded as 0.01 ± 0.00 % ID/g, the Intestines uptake worked out at 0.04 ± 0.02 % ID/g and the Kidney uptake was found to be 4.27 ± 0.87 % ID/g. Besides, in data set [3] (24 h p.i.), the Liver uptake was 0.03 ± 0.00 % ID/g, the Lung uptake is 0.02 ± 0.00 % ID/g, the Muscle uptake was found to be 0.01 ± 0.00 % ID/g and the Pancreas uptake is recorded as 0.01 ± 0.00 % ID/g. In data set [3] (24 h p.i.), this compound came in with a Prostate uptake of 0.04 ± 0.01 % ID/g, a Skin uptake of 0.10 ± 0.06 % ID/g, a Spleen uptake of 0.03 ± 0.00 % ID/g and a Stomach uptake of 0.01 ± 0.00 % ID/g. For the same compound, the Tumor uptake in data set [3] (24 h p.i.) was determined as 0.12 ± 0.02 % ID/g. The “tumor signal in SPECT/CT” value in data set [4] is “faint signal”.

As a reminder, the IC50 is the point on the concentration scale where inhibition reaches its midpoint. Turning to `CC(C)CC(NC(=O)C(Cc1ccccc1)NC(=O)C(CC(=O)O)NC(=O)CCC(=O)Nc1ccc(CCCC(CN2CCN(CC(=O)O)CCN(CC(=O)O)CC2)N(CC(=O)O)CC(=O)O)cc1)C(O)CC(=O)NCCCCCC(=O)NCCCCC(NC(=O)NC(CCC(=O)O)C(=O)O)C(=O)O` (stereo not drawn) [3p-C-NETA-ePSMA-16, EuK(Ahx-Sta-Phe-Asp-3p-C-NETA)], the half-maximal inhibitory concentration (IC50) at recombinant human PSMA is 4.61 ± 1.33 nM. The “IC50 relative to reference PSMA-617 (fold higher IC50 / lower affinity)” value at recombinant human PSMA (vs PSMA-617) stood at 5 fold. The storage stability in data set [5] (stored as a lyophilized powder) was over 1 year; in data set [5] (stored as an aqueous solution), over 6 months.

Regarding `O=C(O)CC[C@H](NC(=O)N[C@@H](CCCCNC(=O)[C@H](Cc1ccc2ccccc2c1)NC(=O)[C@H]1CC[C@H](CNC(=O)CN2CCN(CC(=O)O)CCN(CC(=O)O)CCN(CC(=O)O)CC2)CC1)C(=O)O)C(=O)O` [PSMA-617, reference compound], the IC50 on recombinant human PSMA turned out to be 0.78 ± 0.3 nM.

On to `O=C(O)CN1CCN(CC(=O)O)CCN(CC(CCCc2ccc([N+](=O)[O-])cc2)N(CC(=O)O)CC(=O)O)CC1` (centres unmarked) [3p-C-NETA], for which the “stability in serum in vitro” value in data set [6] is “highly stable in serum in vitro for up to 11 days”.
